What follows are molecules tested against T1, human mGluR5 (Homo sapiens, UniProt P41594) (assay: In vitro cell-based FLIPR calcium assay for positive modulation of the activation of mGluR5 by glutamate (PAM EC50)). Conditions: HEK293/GLAST cells expressing recombinant human mGluR5; FLIPR calcium signal; glutamate added at its EC20; read-out: mGluR5 PAM EC50.
T1 construct: expressed in transfected cells; host or cells: HEK293 cells stably expressing rat GLAST (EAAT1), stably transfected with pcDNAzeo3.1 carrying synthetic human mGluR5 DNA; zeocin-selected single clones
T1 sequence (P41594 21-1212): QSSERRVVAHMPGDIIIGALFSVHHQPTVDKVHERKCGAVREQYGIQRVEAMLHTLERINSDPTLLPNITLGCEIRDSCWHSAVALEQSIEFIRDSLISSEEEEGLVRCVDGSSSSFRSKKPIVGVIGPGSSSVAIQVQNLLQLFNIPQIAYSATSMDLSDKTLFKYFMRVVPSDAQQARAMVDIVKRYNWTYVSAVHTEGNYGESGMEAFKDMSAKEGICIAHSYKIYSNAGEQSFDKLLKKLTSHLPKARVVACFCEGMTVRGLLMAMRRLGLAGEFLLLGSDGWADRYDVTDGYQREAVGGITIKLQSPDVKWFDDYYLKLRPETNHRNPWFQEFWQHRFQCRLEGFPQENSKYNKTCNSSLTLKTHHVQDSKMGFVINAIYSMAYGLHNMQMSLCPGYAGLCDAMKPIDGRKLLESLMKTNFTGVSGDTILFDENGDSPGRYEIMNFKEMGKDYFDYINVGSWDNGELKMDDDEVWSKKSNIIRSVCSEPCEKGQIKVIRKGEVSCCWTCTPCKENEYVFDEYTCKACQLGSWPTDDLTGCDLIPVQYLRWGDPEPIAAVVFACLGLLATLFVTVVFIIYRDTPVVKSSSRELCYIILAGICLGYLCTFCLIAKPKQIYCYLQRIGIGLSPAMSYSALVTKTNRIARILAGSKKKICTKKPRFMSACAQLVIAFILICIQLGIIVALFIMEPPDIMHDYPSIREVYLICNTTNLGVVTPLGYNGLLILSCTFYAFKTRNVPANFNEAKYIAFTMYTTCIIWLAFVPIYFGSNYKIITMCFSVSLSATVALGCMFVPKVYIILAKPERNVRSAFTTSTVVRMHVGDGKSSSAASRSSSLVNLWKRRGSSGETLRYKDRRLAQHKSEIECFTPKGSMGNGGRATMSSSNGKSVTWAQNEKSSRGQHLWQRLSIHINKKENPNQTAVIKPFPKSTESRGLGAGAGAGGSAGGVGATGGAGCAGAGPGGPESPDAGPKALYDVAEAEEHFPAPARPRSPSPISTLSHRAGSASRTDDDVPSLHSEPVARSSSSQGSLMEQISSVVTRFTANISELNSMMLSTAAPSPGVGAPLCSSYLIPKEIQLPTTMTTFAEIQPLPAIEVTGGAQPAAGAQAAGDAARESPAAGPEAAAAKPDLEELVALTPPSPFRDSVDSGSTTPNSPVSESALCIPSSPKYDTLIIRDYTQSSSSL
Summary of the method: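 PAM activity was measured as FLIPR calcium fluorescence in the presence of an EC20 glutamate concentration determined daily from a glutamate concentration-response curve. Cells were HEK293/GLAST clones expressing mGluR5, dye-loaded at 25 °C for 45–60 min in HEPES-buffered HBSS; vehicle control was 0.3% DMSO.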

SMILES	EC50 [nM]
O=CN1CCc2nc3cc(C#Cc4cccc(F)c4)ccc3c(=O)n2CC1 [Example 8.18, 8-((3-fluorophenyl)ethynyl)-11-oxo-1,2,4,5-tetrahydro-[1,4]diazepino[7,1-b]quinazoline-3(11H)-carbaldehyde]	30 to 100
O=c1c2c(nc3cc(C#Cc4ccccn4)ccn13)CCCC2 [Example 15.1, 7-(pyridin-2-ylethynyl)-3,4-dihydro-1H-pyrido[2,1-b]quinazolin-11(2H)-one]	30 to 100
CC1Cc2nc3cc(C#Cc4ccccn4)ccc3c(=O)n2C1 (single isomer, unassigned) [3.12/3.13 faster moving enantiomer (fraction 1), 2-methyl-6-(pyridin-2-ylethynyl)-2,3-dihydropyrrolo[2,1-b]quinazolin-9(1H)-one]	30 to 100
CC1(O)CCc2nc3cc(C#Cc4ccccn4)ccc3c(=O)n2CC1 (stereo not drawn) [Example 6.49, 8-hydroxy-8-methyl-3-(pyridin-2-ylethynyl)-7,8,9,10-tetrahydroazepino[2,1-b]quinazolin-12(6H)-one]	100 to 300
CC1CCCc2nc3cc(C#Cc4cccc(F)c4)ccc3c(=O)n21 (stereo not drawn) [Example 4.17, 3-((3-fluorophenyl)ethynyl)-9-methyl-8,9-dihydro-6H-pyrido[2,1-b]quinazolin-11(7H)-one]	10 to 30
O=c1c2ccc(C#Cc3ccc(Cl)cc3)cc2nc2n1CCC1(CC2)OCCO1 [Example 7.09]	300 to 1000
CC1(C)CCn2c(nc3cc(C#Cc4cccc(F)c4)ccc3c2=O)C1 [Example 4.13, 3-((3-fluorophenyl)ethynyl)-7,7-dimethyl-8,9-dihydro-6H-pyrido[2,1-b]quinazolin-11(7H)-one]	< 10
N#Cc1cccc(C#Cc2ccc3c(=O)n4c(nc3c2)CCC2(CC4)OCCO2)c1 [Example 7.38]	30 to 100
Cc1ccsc1C#Cc1ccc2c(=O)n3c(nc2c1)CCC1(CC3)OCCO1 [Example 7.58]	300 to 1000
CC1CCn2c(nc3cc(C#Cc4cccc(F)c4)ccc3c2=O)C1 (stereo not drawn) [Example 4.10, 3-((3-fluorophenyl)ethynyl)-7-methyl-8,9-dihydro-6H-pyrido[2,1-b]quinazolin-11(7H)-one]	< 10
O=c1c2ccc(C#Cc3cscn3)cc2nc2n1CCC1(CC2)OCCO1 [Example 7.62]	300 to 1000
O=c1c2c(nc3cc(C#Cc4ccc(F)cc4)ccn13)CCCCC2 [Example 16.1, 3-((4-fluorophenyl)ethynyl)-7,8,9,10-tetrahydrocyclohepta[d]pyrido[1,2-a]pyrimidin-11(6H)-one]	< 10
CCN1CCc2nc3cc(C#Cc4ccc(F)cc4)ccc3c(=O)n2CC1 [Example 8.2, 3-ethyl-8-((4-fluorophenyl)ethynyl)-2,3,4,5-tetrahydro-[1,4]diazepino[7,1-b]quinazolin-11(1H)-one]	100 to 300
CCCn1cnc2cc(C#Cc3ccc(F)cc3)ccc2c1=O [Example 1.6, 7-((4-fluorophenyl)ethynyl)-3-propylquinazolin-4(3H)-one]	100 to 300
O=c1c2ccc(C#Cc3ccc(F)cc3)cc2nc2n1CCOC2 [Example 4.2, 9-((4-fluorophenyl)ethynyl)-3,4-dihydro-[1,4]oxazino[3,4-b]quinazolin-6(1H)-one]	30 to 100
CN1C2CCC1Cn1c(nc3cc(C#Cc4cccc(F)c4)ccc3c1=O)C2 (stereo not drawn) [Example 9.1, 3-((3-fluorophenyl)ethynyl)-14-methyl-8,9,10,11-tetrahydro-6H-7,10-epiminoazocino[2,1-b]quinazolin-13(7H)-one]	300 to 1000
CC(C)CC1Cc2nc3cc(C#Cc4cccc(F)c4)ccc3c(=O)n2C1 (stereo not drawn) [Example 3.9, 6-((3-fluorophenyl)ethynyl)-2-isobutyl-2,3-dihydropyrrolo[2,1-b]quinazolin-9(1H)-one]	10 to 30
Cc1cnc(NC(=O)c2ccc3c(=O)n4c(nc3c2)CCOCC4)s1 [Example 23.2, N-(5-methylthiazol-2-yl)-11-oxo-2,4,5,11-tetrahyrdo-1H-[1,4]oxazepino[5,4-b]quinazoline-8-carboxamide]	100 to 300
O=c1c2ccc(C#Cc3ccccn3)cc2nc2n1CCC(F)CC2 (stereo not drawn) [Example 6.46, 8-fluoro-3-(pyridin-2-ylethynyl)-7,8,9,10-tetrahydroazepino[2,1-b]quinazolin-12(6H)-one]	< 10
CCOC(C)c1cnc2cc(C#Cc3cccc(F)c3)ccn2c1=O (stereo not drawn) [Example 13.2, 3-(1-ethoxyethyl)-8-((3-fluorophenyl)ethynyl)-4H-pyrido[1,2-a]pyrimidin-4-one]	< 10
CN1CCn2c(nc3cc(C#Cc4ccccn4)ccc3c2=O)C1 [Example 5.5, 2-methyl-9-(pyridin-2-ylethynyl)-3,4-dihydro-1H-pyrazino[2,1-b]quinazolin-6(2H)-one]	100 to 300
O=c1c2ccc(C#Cc3ccccn3)cc2nc2n1CC1(CCOCC1)C2 [Example 3.24, 6′-(pyridin-2-ylethynyl)-2,3,5,6-tetrahydro-1′H-spiro[pyran-4,2′-pyrrolo[2,1-b]quinazolin]-9′(3′H)-one]	10 to 30
O=c1c2ccc(C#Cc3cccnc3)cc2nc2n1CC1CCCN1C2 (stereo not drawn) [Example 5.24, 8-(pyridin-3-ylethynyl)-2,3,13,13a-tetrahydro-1H-pyrrolo[1′,2′:4,5]pyrazino[2,1-b]quinazolin-11(5H)-one]	30 to 100

Next, values leading:

EC50 [nM]	SMILES
100 to 300	O=c1c2ccc(C#Cc3cccc(F)c3)cc2nc2n1CCNCC2 [Example 8.6, 8-((3-fluorophenyl)ethynyl)-2,3,4,5-tetrahydro-[1,4]diazepino[7,1-b]quinazolin-11(1H)-one]
10 to 30	O=c1c2ccc(C#Cc3cccc(F)c3)cc2nc2n1CC1(CC2)OCCO1 [Example 4.21, 3′((3-fluorophenyl)ethynyl)-6′,7′-dihydrospiro[[1,3]dioxolane-2,8′-pyrido[2,1-b]quinazolin]-11′(9′H)-one]
100 to 300	CN(C)C1CCc2nc3cc(C#Cc4cccc(F)c4)ccc3c(=O)n2C1 (stereo not drawn) [Example 4.30, 8-(dimethylamino)-3-((3-fluorophenyl)ethynyl)-8,9-dihydro-6H-pyrido[2,1-b]quinazolin-11(7H)-one]
< 10	CC1CCc2nc3cc(C#Cc4ccccn4)ccc3c(=O)n2CC1 (single isomer, unassigned) [6.10/6.11 faster moving enantiomer (fraction 1), 8-methyl-3-(pyridin-2-ylethynyl)-7,8,9,10-tetrahydroazepino[2,1-b]quinazolin-12(6H)-one]
300 to 1000	O=c1c2ccc(C#CC3CCCC3)cc2nc2n1CCC1(CC2)OCCO1 [Example 7.52]
< 10	O=c1c2ccc(C#Cc3cccc(F)c3)cc2nc2n1CCOC2 [Example 4.1, 9-((3-fluorophenyl)ethynyl)-3,4-dihydro-[1,4]oxazino[3,4-b]quinzolin-6(1H)-one]
< 10	CN1CCOCC1c1nc2cc(C#Cc3cccc(F)c3)ccc2c(=O)n1C (stereo not drawn) [Example 2.9, 7-((3-fluorophenyl)ethynyl)-3-methyl-2-(4-methylmorpholin-3-yl)quinazolin-4(3H)-one]
300 to 1000	CC1Cc2nc3cc(C#Cc4ccccn4)cnc3c(=O)n2C1 (stereo not drawn) [Example 11.13, 7-methyl-3-(pyridin-2-ylethynyl)-7,8-dihydropyrido[3,2-d]pyrrolo[1,2-a]pyrimidin-10(6H)-one]
300 to 1000	O=c1c2ccc(C#CC3CCCCC3)cc2nc2n1CCC1(CC2)OCCO1 [Example 7.54]
10 to 30	Cc1cnc(NC(=O)c2ccc3c(=O)n4c(nc3c2)C(C)CCCCC4)s1 (stereo not drawn) [Example 25.3, 6-methyl-N-(5-methylthiazol-2-yl)-13-oxo-7,8,9,10,11,13-hexahydro-6H-azocino[2,1-b]quinazoline-3-carboxamide]
30 to 100	COCC1CCc2nc3cc(C#Cc4ccccn4)ccc3c(=O)n21 (stereo not drawn) [Example 3.7, 1-(methoxymethyl)-6-(pyridin-2-ylethynyl)-2,3-dihydropyrrolo[2,1-b]quinazolin-9(1H)-one]
30 to 100	O=c1c2ccc(C#Cc3ccccn3)cc2nc2n1C[C@@H]1CCCN1C2 [Example 5.23, (S)-8-(pyridin-2-ylethynyl)-2,3,13,13a-tetrahydro-1H-pyrrolo[1′,2′:4,5]pyrazino[2,1-b]quinazolin-11(5H)-one]
10 to 30	COCc1nc2cc(C#Cc3cccc(F)c3)ccc2c(=O)n1C [Example 2.18, 7-((3-fluorophenyl)ethynyl)-2-(methoxymethyl)-3-methylquinazolin-4(3H)-one]
30 to 100	CC1(C)CCc2nc3cc(/C=C/c4ccccc4F)ccc3c(=O)n2C1 [Example 20.12, (E)-3-(2-fluorostyryl)-8,8-dimethyl-8,9-dihydro-6H-pyrido[2,1-b]quinazolin-11(7H)-one]
10 to 30	O=C1CCc2nc3cc(C#Cc4cccc(F)c4)ccc3c(=O)n2CC1 [Example 6.14, 3-((3-fluorophenyl)ethynyl)-6,7,9,10-tetrahydroazepino[2,1-b]quinazoline-8,12-dione]
30 to 100	O=c1c2ccc(C#Cc3ccccn3)cc2nc2n1CC1CCCN1C2 (stereo not drawn) [Example 5.22, 8-(pyridin-2-ylethynyl)-2,3,13,13a-tetrahydro-1H-pyrrolo[1′,2′:4,5]pyrazino[2,1-b]quinazolin-11(5H)-one]
100 to 300	CN1CCCC1c1nc2cc(C#Cc3cccc(F)c3)ccc2c(=O)n1C (stereo not drawn) [Example 2.4, 7-((3-fluorophenyl)ethynyl)-3-methyl-2-(1-methylpyrrolidin-2-yl)quinazolin-4(3H)-one]
30 to 100	COCC1CCc2nc3cc(C#Cc4ccccn4)ccc3c(=O)n2C1 (single isomer, unassigned) [4.34a/4.34b faster moving enantiomer (fraction 1), 8-(methoxymethyl)-3-(pyridin-2-ylethynyl)-8,9-dihydro-6H-pyrido[2,1-b]quinazolin-11(7H)-one]
100 to 300	CC1(C)Cn2c(nc3cc(C#Cc4ccccn4)ccc3c2=O)CN1 [Example 5.17, 3,3-dimethyl-9-(pyridin-2-ylethynyl)-3,4-dihydro-1H-pyrazino[2,1-b]quinazolin-6(2H)-one]

From US10077243B2, “Compounds for treating disorders mediated by metabotropic glutamate receptor 5, and methods of use thereof” (Sunovion Pharmaceuticals Inc., priority 2009, dated 2018)
